Results taken from publication PMC9368490, “Exploring the Molecular Interactions of Symmetrical and Unsymmetrical Selenoglycosides with Human Galectin-1 and Galectin-3” (International Journal of Molecular Sciences, 2022).

Key:
Gal-1 = molecular target: T1, Gal-1 (Homo sapiens, UniProt P09382); test: biochemical
T1 construct: gene LGALS1

Gal-3^CRD = molecular target: T2, Gal-3^CRD (Homo sapiens, UniProt P17931); test: biochemical
T2 construct: gene LGALS3
T2 sequence (P17931 112-250): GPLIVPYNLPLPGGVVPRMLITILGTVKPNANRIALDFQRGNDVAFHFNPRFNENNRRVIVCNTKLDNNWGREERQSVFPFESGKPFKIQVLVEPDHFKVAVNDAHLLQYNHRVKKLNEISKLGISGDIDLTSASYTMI

T1 sequence (P09382 whole entry): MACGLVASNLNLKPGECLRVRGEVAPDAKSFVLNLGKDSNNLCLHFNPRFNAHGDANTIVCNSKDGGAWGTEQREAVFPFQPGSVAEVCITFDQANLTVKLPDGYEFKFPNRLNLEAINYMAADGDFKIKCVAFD

OC[C@H]1O[C@@H]([Se][C@@H]2O[C@H](CO)[C@H](O)[C@H](O)[C@H]2O)[C@H](O)[C@@H](O)[C@H]1O [SeDG] was tested, and the Kd (Gal-1) was 23.7 ± 4.2 µM and the Kd (Gal-3^CRD) was 20.2 ± 2.2 µM.
